In this assay the target is T1, NHE-1 (Homo sapiens, UniProt P19634).
T1 construct: endogenous in cells; host or cells: HT-29
In words: Evaluation of NHE-1 Inhibition (pHi) in HT-29 cells. The following applies: BCECF dye, 50% inhibition of the intracellular pH recovery, read-out: NHE1 HT29 pHi IC50. The assay is classed as cell-based. Here is the method:
Evaluation of NHE-1 Inhibition (pHi)
HT-29 cells resuspended in DMEM supplemented with 10% FBS, 1% NEAA, and 1% Penn-Strep are seeded at 10,000 cells/well in collagen coated 384 well plates which are then incubated for 24 hours at 37° C. The next day, the medium is removed and the cells are dye (Invitrogen's BCECF) loaded for 30 minutes at 37° C., washed three times with an acid loading buffer (10 mM NH4Cl, 1.8 mM CaCl2, 90 mM Choline Cl, 5 mM Glucose, 15 mM Hepes, 5 mM KCl, 1 mM MgCl2, adjusted to pH 7.5 with KOH) and further incubated at RT for 30 minutes.
At the end of the incubation, the buffer is removed and 5 uL of fresh acid loading buffer is added to each well to prevent the dessication of the cells. The plate is placed in a Hamamatsu FDSS6000 instrument and candidate compounds are added to the cells.

T1 sequence (P19634 whole entry): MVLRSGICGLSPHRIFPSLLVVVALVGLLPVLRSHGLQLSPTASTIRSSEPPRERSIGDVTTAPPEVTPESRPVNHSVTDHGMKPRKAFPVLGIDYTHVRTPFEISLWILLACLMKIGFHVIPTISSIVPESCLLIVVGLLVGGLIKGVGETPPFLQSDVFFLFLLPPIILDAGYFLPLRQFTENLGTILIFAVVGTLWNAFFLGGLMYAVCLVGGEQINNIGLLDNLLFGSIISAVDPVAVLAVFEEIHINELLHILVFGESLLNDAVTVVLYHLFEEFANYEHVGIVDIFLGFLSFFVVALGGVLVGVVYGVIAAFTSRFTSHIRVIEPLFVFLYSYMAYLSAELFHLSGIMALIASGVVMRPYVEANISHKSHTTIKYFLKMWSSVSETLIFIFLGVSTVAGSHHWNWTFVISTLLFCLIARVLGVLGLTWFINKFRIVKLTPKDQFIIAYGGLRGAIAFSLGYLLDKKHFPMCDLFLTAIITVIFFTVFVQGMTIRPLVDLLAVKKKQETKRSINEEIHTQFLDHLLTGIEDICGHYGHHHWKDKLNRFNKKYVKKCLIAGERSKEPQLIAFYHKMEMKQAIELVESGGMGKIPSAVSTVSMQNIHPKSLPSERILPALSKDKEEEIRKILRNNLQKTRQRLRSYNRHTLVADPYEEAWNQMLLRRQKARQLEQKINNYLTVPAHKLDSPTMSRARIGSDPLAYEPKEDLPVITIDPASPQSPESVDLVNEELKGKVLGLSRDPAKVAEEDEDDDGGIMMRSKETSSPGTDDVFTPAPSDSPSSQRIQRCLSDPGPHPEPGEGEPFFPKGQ

With `Cc1cc(C2CCN(C(=O)c3ccc(C#N)cc3)CC2)c(C(F)(F)F)cc1C(=O)NC(=N)N` [N-{4-[1-(4-cyano-benzoyl)-piperidin-4-yl]-2-methyl-5-trifluoromethyl-benzoyl}-guanidine], the IC50 (usually the concentration that gives 50% inhibition) came out at 36 nM. For `N=C(N)NC(=O)c1ccc(C2CCN(C(=O)C3(N)CCS(=O)(=O)CC3)CC2)c(C(F)(F)F)c1` [N-{4-[1-(4-Amino-1,1-dioxo-hexahydro-g-thiopyran-4-carbonyl)-piperidin-4-yl]-3-trifluoromethyl-benzoyl}-guanidine] the value was 11 nM. `COc1cccc(C(=O)N2CCC(c3ccc(C(=O)NC(=N)N)cc3C(F)(F)F)CC2)c1` [N-{4-[1-(3-Methoxy-benzoyl)-piperidin-4-yl]-3-trifluoromethyl-benzoyl}-guanidine]: the IC50 came out at 106 nM. Turning to `CN(C)CC(=O)N1CCC(c2ccc(C(=O)NC(=N)N)cc2C(F)(F)F)CC1` [N-{4-[1-(2-Dimethylamino-acetyl)-piperidin-4-yl]-3-trifluoromethyl-benzoyl}-guanidine], the IC50 was found to be 5 nM. Under `CC(C)CC(N)C(=O)N1CCC(c2ccc(C(=O)NC(=N)N)cc2C(F)(F)F)CC1` (stereo not shown) [N-{4-[1-(2-Amino-4-methyl-pentanoyl)-piperidin-4-yl]-3-trifluoromethyl-benzoyl}-guanidine] stands 40 nM; under `N=C(N)NC(=O)c1ccc(C2CCN(C(=O)c3cnc4ccccc4c3)CC2)c(C(F)(F)F)c1` [N-{4-[1-(Quinoline-3-carbonyl)-piperidin-4-yl]-3-trifluoromethyl-benzoyl}-guanidine], 70 nM. For `N=C(N)NC(=O)c1ccc(C2CCN(C(=O)C3(N)CCOCC3)CC2)c(C(F)(F)F)c1` [N-{4-[1-(4-Amino-tetrahydro-pyran-4-carbonyl)-piperidin-4-yl]-3-trifluoromethyl-benzoyl}-guanidine] the value was 18 nM. For `N=C(N)NC(=O)c1ccc(C2CCN(C(=O)c3cccc(-c4cnco4)c3)CC2)c(C(F)(F)F)c1` [N-{4-[1-(3-Oxazol-5-yl-benzoyl)-piperidin-4-yl]-3-trifluoromethyl-benzoyl}-guanidine] the value was 14 nM.

On to `CCC(=O)N1CCC(c2cc(C)c(C(=O)NC(=N)N)cc2S(C)(=O)=O)CC1` [N-{5-methanesulfonyl-4-[1-propionyl-piperidin-4-yl]-2-methyl-benzoyl}-guanidine], for which the IC50 came out at 16 nM. For `COCC(=O)N1CCC(c2ccc(C(=O)NC(=N)N)cc2C(F)(F)F)CC1` [N-{4-[1-(2-Methoxy-acetyl)-piperidin-4-yl]-3-trifluoromethyl-benzoyl}-guanidine] the value was 22 nM; for `N=C(N)NC(=O)c1ccc([C@H]2CCN(C(=O)c3ccc(F)cc3)C2)c(C(F)(F)F)c1` [(R)-N-{4-[1-(4-fluoro-benzoyl)-pyrrolidin-3-yl]-3-trifluoromethyl-benzoyl}-guanidine], 24 nM; for `CSCCC(N)C(=O)N1CCC(c2ccc(C(=O)NC(=N)N)cc2C(F)(F)F)CC1` (stereo not shown) [N-{4-[1-(2-Amino-4-methylsulfanyl-butyryl)-piperidin-4-yl]-3-trifluoromethyl-benzoyl}-guanidine], 13 nM.

For the compound `N=C(N)NC(=O)c1ccc(C2CCN(C(=O)c3ccc(F)cc3C(F)(F)F)CC2)c(C(F)(F)F)c1` [N-{4-[1-(4-Fluoro-2-trifluoromethyl-benzoyl)-piperidin-4-yl]-3-trifluoromethyl-benzoyl}-guanidine], the IC50 turned out to be 350 nM.

In the case of `N=C(N)NC(=O)c1ccc(C2CCN(C(=O)c3ccccc3)CC2)c(C(F)(F)F)c1` [N-[4-(1-Benzoyl-piperidin-4-yl)-3-trifluoromethyl-benzoyl]-guanidine], the IC50 was found to be 45 nM. Under `CC(N)C(=O)N1CCC(c2ccc(C(=O)NC(=N)N)cc2C(F)(F)F)CC1` (stereo not shown) [N-{4-[1-(2-Amino-propionyl)-piperidin-4-yl]-3-trifluoromethyl-benzoyl}-guanidine] stands 5 nM.

With `COc1ccccc1-c1cc(C(=O)N2CCC(c3ccc(C(=O)NC(=N)N)cc3C(F)(F)F)CC2)ccn1` [N-(4-{1-[2-(2-Methoxy-phenyl)-pyridine-4-carbonyl]-piperidin-4-yl}-3-trifluoromethyl-benzoyl)-guanidine], the IC50 was found to be 200 nM. For `COc1cc(C2CCN(C(=O)[C@@H](OC(C)=O)c3ccccc3)CC2)c(C(F)(F)F)cc1C(=O)NC(=N)N` [(S)-Acetic acid 2--[4-(4-guanidinocarbonyl-5-methoxy-2-trifluoromethyl-phenyl)-piperidin-1-yl]-2-oxo-1-phenyl-ethyl ester] the value was 92 nM; for `CN(C)S(=O)(=O)c1ccc(C(=O)N2CCC(c3ccc(C(=O)NC(=N)N)cc3C(F)(F)F)CC2)cc1` [4-[4-(4-Guanidinocarbonyl-2-trifluoromethyl-phenyl)-piperidine-1-carbonyl]-N,N-dimethyl-benzenesulfonamide], 36 nM; for `N=C(N)NC(=O)c1ccc(C2CCN(C(=O)c3ccc(C(N)=O)cc3)CC2)c(C(F)(F)F)c1` [4-[4-(4-Guanidinocarbonyl-2-trifluoromethyl-phenyl)-piperidine-1-carbonyl]-benzamide], 28 nM. For `N=C(N)NC(=O)c1ccc(C2CCN(C(=O)C(N)Cc3ccncc3)CC2)c(C(F)(F)F)c1` (stereo not shown) [N-{4-[1-(2-Amino-3-pyridin-4-yl-propionyl)-piperidin-4-yl]-3-trifluoromethyl-benzoyl}-guanidine] the value was 32 nM; for `CCC(=O)N1CCC(c2ccc(C(=O)NC(=N)N)cc2C(F)(F)F)CC1` [N-[4-(1-Propionyl-piperidin-4-yl)-3-trifluoromethyl-benzoyl]-guanidine], 12 nM; for `N=C(N)NC(=O)c1ccc(C2CCN(C(=O)Cc3cccnc3)CC2)c(C(F)(F)F)c1` [N-{4-[1-(2-Pyridin-3-yl-acetyl)-piperidin-4-yl]-3-trifluoromethyl-benzoyl}-guanidine], 27 nM. For `Cn1cncc1C(=O)N1CCC(c2ccc(C(=O)NC(=N)N)cc2C(F)(F)F)CC1` [N-{4-[1-(3-Methyl-3H-imidazole-4-carbonyl)-piperidin-4-yl]-3-trifluoromethyl-benzoyl}-guanidine] the value was 15 nM. On to `N=C(N)NC(=O)c1ccc(C2CCN(C(=O)C3(N)CCC3)CC2)c(C(F)(F)F)c1` [N-{4-[1-(1-Amino-cyclobutanecarbonyl)-piperidin-4-yl]-3-trifluoromethyl-benzoyl}-guanidine], for which the IC50 stood at 31 nM.

Take `N=C(N)NC(=O)c1ccc(C2CCN(C(=O)c3ccc[nH]3)C2)c(C(F)(F)F)c1` (stereo not shown) [N-{4-[1-(1H-Pyrrole-2-carbonyl)-pyrrolidin-3-yl]-3-trifluoromethyl-benzoyl}-guanidine]: the IC50 was 19 nM. Under `N=C(N)NC(=O)c1ccc(C2CCN(C(=O)c3ccc4ncccc4c3)CC2)c(C(F)(F)F)c1` [N-{4-[1-(Quinoline-6-carbonyl)-piperidin-4-yl]-3-trifluoromethyl-benzoyl}-guanidine] stands 64 nM; under `N=C(N)NC(=O)c1ccc(C2CCN(C(=O)c3cscn3)CC2)c(C(F)(F)F)c1` [N-{4-[1-(Thiazole-4-carbonyl)-piperidin-4-yl]-3-trifluoromethyl-benzoyl}-guanidine], 18 nM.

In the case of `N=C(N)NC(=O)c1ccc(C2CCN(C(=O)C(N)Cc3ccccc3)CC2)c(C(F)(F)F)c1` (stereo not shown) [N-{4-[1-(2-Amino-3-phenyl-propionyl)-piperidin-4-yl]-3-trifluoromethyl-benzoyl}-guanidine], the IC50 was determined as 19 nM.

These data come from patent publication US20110118262A1, “Pyrrolidinyl and Piperidinyl Compounds Useful as NHE-1 Inhibitiors” (BOEHRINGER INGELHEIM INTERNATIONAL GMBH, priority 2008, published 2011).
